Measurements from PubChem BioAssay AID330 (DTP/NCI, 2004).
Several values for one entry are separate records, joined by “and”; a condition that tells them apart may be missing. Equal entries are not always repeated. Toxic doses and inconclusive results are not listed. The calls were made as follows: active = survival T/C of 150% or more; inactive = T/C below 125% in these data. Peptide text beside a SMILES is read from it.

System: P388 leukemia ip, CD2F1 mice, survival T/C
Assay: NCI In Vivo Anticancer Drug Screen. Data for tumor model P388 Leukemia (intraperitoneal) in CD2F1 (CDF1) mice
Conditions: endpoint: median survival time, higher = longer survival
In short: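 Mice carrying the transplanted tumor received test compound or vehicle. Survival was recorded in each group, and the value is the treated-group measurement divided by that of the vehicle-treated control group.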

[1] = dose: 60.0 mg/kg/injection, schedule: Q01DX005 (ip), vehicle: saline
[2] = dose: 120.0 mg/kg/injection, schedule: Q01DX005 (ip), vehicle: saline
[3] = dose: 50.0 mg/kg/injection, schedule: Q01DX009 (ip), vehicle: saline with Tween-80
[4] = dose: 100.0 mg/kg/injection, schedule: Q01DX009 (ip), vehicle: saline with Tween-80
[5] = dose: 50.0 mg/kg/injection, schedule: Q01DX005 (ip), vehicle: Klucel (hydroxypropylcellulose) (HPC)
[6] = dose: 100.0 mg/kg/injection, schedule: Q01DX005 (ip), vehicle: Klucel (hydroxypropylcellulose) (HPC)
[7] = dose: 200.0 mg/kg/injection, schedule: Q01DX005 (ip), vehicle: Klucel (hydroxypropylcellulose) (HPC)

Measured: T/C

COc1ccc2cc1Oc1ccc(cc1)CC1c3cc(c(OC)cc3CCN1C)Oc1c(OC)c(OC)c(O)c3c1C(C2)N(C)CC3 (stereo not drawn)
inactive: dose: 25.0 mg/kg/injection, schedule: Q01DX001 (ip), vehicle: saline with Tween-80 99 % of control | dose: 50.0 mg/kg/injection, schedule: Q01DX001 (ip), vehicle: saline with Tween-80 105 % of control | dose: 100.0 mg/kg/injection, schedule: Q01DX001 (ip), vehicle: saline with Tween-80 108 % of control and 111 % of control

COc1c2c(cc3c1OCO3)CCN(C)C2
inactive: dose: 10.0 mg/kg/injection, schedule: Q01DX009 (ip), vehicle: saline 106 % of control | dose: 20.0 mg/kg/injection, schedule: Q01DX009 (ip), vehicle: saline 101 % of control | dose: 40.0 mg/kg/injection, schedule: Q01DX009 (ip), vehicle: saline 98 % of control | dose: 80.0 mg/kg/injection, schedule: Q01DX009 (ip), vehicle: saline 104 % of control

C#CCCCOCOCCOC
inactive: [1] 101 % of control | [2] 101 % of control

CCc1nc(N)nc(N)c1-c1ccc(NC(C)c2ccccc2)c([N+](=O)[O-])c1 (stereo not drawn)
inactive: dose: 3.75 mg/kg/injection, schedule: Q01DX005 (ip), vehicle: Klucel (hydroxypropylcellulose) (HPC) 101 % of control | dose: 7.5 mg/kg/injection, schedule: Q01DX005 (ip), vehicle: Klucel (hydroxypropylcellulose) (HPC) 101 % of control and 107 % of control | dose: 15.0 mg/kg/injection, schedule: Q01DX005 (ip), vehicle: Klucel (hydroxypropylcellulose) (HPC) 112 % of control and 113 % of control

CCC(C(=O)NNC(=O)c1cc(OC)c(OC)c(OC)c1)c1ccccc1 (stereo not drawn)
inactive: dose: 12.5 mg/kg/injection, schedule: Q01DX009 (ip), vehicle: saline with Tween-80 105 % of control | dose: 25.0 mg/kg/injection, schedule: Q01DX009 (ip), vehicle: saline with Tween-80 97 % of control | [3] 98 % of control | [4] 98 % of control

O=C1C2C3C=CC(O3)C2C(=O)N1CCN1CCOCC1 (stereo not drawn)
inactive: dose: 25.0 mg/kg/injection, schedule: Q01DX005 (ip), vehicle: water 96 % of control | dose: 50.0 mg/kg/injection, schedule: Q01DX005 (ip), vehicle: water 97 % of control | dose: 100.0 mg/kg/injection, schedule: Q01DX005 (ip), vehicle: other 93 % of control | dose: 100.0 mg/kg/injection, schedule: Q01DX005 (ip), vehicle: water 102 % of control | dose: 200.0 mg/kg/injection, schedule: Q01DX005 (ip), vehicle: other 101 % of control

O=Cc1c(-c2ccc(-c3ccccc3)cc2)nc2sccn12
inactive: dose: 100.0 mg/kg/injection, schedule: Q01DX001 (ip), vehicle: Klucel (hydroxypropylcellulose) (HPC) 86 % of control | dose: 200.0 mg/kg/injection, schedule: Q01DX001 (ip), vehicle: Klucel (hydroxypropylcellulose) (HPC) 89 % of control | dose: 400.0 mg/kg/injection, schedule: Q01DX001 (ip), vehicle: Klucel (hydroxypropylcellulose) (HPC) 89 % of control

CCO[Si](O[Si](OCC)(c1ccccc1)c1ccccc1)(c1ccccc1)c1ccccc1
inactive: dose: 50.0 mg/kg/injection, schedule: Q01DX009 (ip), vehicle: saline 93 % of control | dose: 100.0 mg/kg/injection, schedule: Q01DX009 (ip), vehicle: saline 102 % of control | dose: 200.0 mg/kg/injection, schedule: Q01DX009 (ip), vehicle: saline 91 % of control

S=C1SCN(Cc2ccco2)CN1Cc1ccco1
inactive: [3] 94 % of control | [4] 94 % of control

CC(C)(C)OC(=O)NC(Cc1ccc(OCc2ccccc2)cc1)C(=O)ON1C(=O)CCC1=O (stereo not drawn)
inactive: [5] 93 % of control | [6] 88 % of control | [7] 100 % of control

CC(C)CC(NC(=O)C(CC(=O)O)NC(=O)C(N)CO)C(=O)N1CCCC1C(=O)NC(CCC(N)=O)C(=O)NC(C(=O)O)C(C)O (stereo not drawn) (H-SDLPQT-OH; configuration not given here)
inactive: dose: 9.0 mg/kg/injection, schedule: Q01DX005 (ip), vehicle: water 110 % of control | dose: 18.0 mg/kg/injection, schedule: Q01DX005 (ip), vehicle: water 107 % of control | dose: 36.0 mg/kg/injection, schedule: Q01DX005 (ip), vehicle: water 107 % of control | dose: 72.0 mg/kg/injection, schedule: Q01DX005 (ip), vehicle: water 107 % of control | dose: 144.0 mg/kg/injection, schedule: Q01DX005 (ip), vehicle: water 100 % of control

CC(C)(C)OC(=O)NC(Cc1cnc[nH]1)C(=O)O (stereo not drawn)
inactive: [5] 90 % of control | [6] 99 % of control | [7] 98 % of control

C1Cc2[nH]nc(-c3n[nH]c4c3CCC4)c2C1
inactive: [1] 97 % of control | [2] 97 % of control | dose: 240.0 mg/kg/injection, schedule: Q01DX005 (ip), vehicle: saline 97 % of control
